This is an account of results in patent publication US6204220A, “Substituted 2-oxo-3-alkynoic acids and methods of use thereof” (Rutgers, The State University of New Jersey, priority 1999, dated 2001).

Experiment [1] deals with T1, resolved E1 (Escherichia coli, UniProt P0AFG8).
T1 construct: made in house; host or cells: resolved from PDHc expressed in E. coli JRG1342
In words: Inactivation of resolved E1 component (activity after reconstitution with E2-E3 subcomplex). The experiment is classed as biochemical, E. coli. The settings on record: for effect on catalytic activity of resolved E1 (in words): data not shown. Here is the method:
Resolution of the E1 component from PDHc. […] PDHc was dialyzed against 50 mM Tris buffer, pH 9.0, containing 0.1 mM benzamidine.HCl, 0.15 M NaCl, 0.1 mM PMSF for 2 h, before applying to a column equilibrated and eluted with the same buffer.
(§1) Activity and related measurements on PDHc. The overall enzymatic reaction of the PDH complex was assayed using a Varian DMS 300 spectrophotometer or the Cobas Bio (Roche Diagnostics, Somerville, N.J.) automated centrifugal analyzer, monitoring the pyruvate-dependent reduction of NAD^+ at 340 nm. The reaction medium contained in 1 mL (DMS 300) or 0.25 mL (Cobas-Bio) test volume: 0.1 M Tris-HCl, pH 8.0; 1 mM MgCl2; 2 mM sodium pyruvate; 2.5 mM NAD^+; 0.052-0.2 mM coenzyme A; 0.2 mM ThDP; and 2.6 mM DTT at 27° C. The reaction was initiated either by adding enzyme to a mixture of all other components, or by adding CoA.
(§2) One unit of activity is defined as the amount of NADH produced (μmol) per min per mg protein. The activity of resolved E1 was measured after reconstitution with excess E2-E3 subcomplex using the NADH assay for PDHc activity.
(§3) Inactivation of 1-lip and 3-lip PDH complexes and resolved E1 component by 2-oxo-3-alkynoic acids. Intact 1-lip or 3-lip PDH complexes (0.050-0.1 mg) or resolved E1 component (0.05-0.09 mg) were incubated in the dark with 5 mM MgCl2, […] of 2-oxo-3-alkynoic acids in 20 mM KH2 PO4 buffer, pH 7.5 at room temperature in a total volume 0.5 mL. The initial activity (100%) was assayed prior to the addition of 2-oxo-3-alkynoic acids. Samples (50 μL) were withdrawn periodically and diluted into 1 mL of assay solution, containing all components necessary for assay of the overall activity. The activity of untreated enzyme was stable during the time of inactivation.

In experiment [2] the target is T2, PDC from Saccharomyces cerevisiae (Saccharomyces cerevisiae, UniProt P06169).
T2 sequence (P06169 2-563 limits assumed): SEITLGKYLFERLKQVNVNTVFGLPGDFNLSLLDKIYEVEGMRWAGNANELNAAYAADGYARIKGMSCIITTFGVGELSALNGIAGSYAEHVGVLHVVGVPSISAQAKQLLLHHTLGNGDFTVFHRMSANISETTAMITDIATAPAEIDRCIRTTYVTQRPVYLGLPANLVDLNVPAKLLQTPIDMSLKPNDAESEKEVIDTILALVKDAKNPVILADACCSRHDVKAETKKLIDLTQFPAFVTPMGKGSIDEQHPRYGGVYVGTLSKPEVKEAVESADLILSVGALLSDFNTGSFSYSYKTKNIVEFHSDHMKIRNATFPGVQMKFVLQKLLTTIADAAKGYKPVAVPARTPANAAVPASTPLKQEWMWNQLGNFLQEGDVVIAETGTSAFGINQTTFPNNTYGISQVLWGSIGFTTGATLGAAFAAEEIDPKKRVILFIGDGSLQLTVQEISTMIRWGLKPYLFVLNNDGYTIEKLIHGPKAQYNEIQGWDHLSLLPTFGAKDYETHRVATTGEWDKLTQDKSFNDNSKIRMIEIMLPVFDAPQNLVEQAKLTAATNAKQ
The settings on record: cited from earlier work; for inhibition of brewer's yeast PDC (in words): Chiu & Jordan, 1994.

The target in a further experiment is PDHc (Escherichia coli, UniProt P0AFG8). In words: Inactivation of 1-lip and 3-lip PDH complexes by 2-oxo-3-alkynoic acids (overall NADH assay). The conditions noted are these: for kapp, slower phase of inactivation: PDHc. The experiment is classed as biochemical, E. coli. Set-up: made in house; host or cells: E. coli JRG1342 (PDHc null) with Ptac plasmid pGS501 (1-lip) or pGS523 (3-lip).
Text: Bacterial strains and plasmids for PDHc. Derivatives of the PDHc null strain, E. coli JRG1342 contained Ptac expression plasmids encoding PDHc with E2 chains bearing three lipoyl domains (3-lip PDHc; pGS523, the wild type parental complex), or a single lipoyl domain in each E2 subunit (1-lip PDHc; pGS501), and variant 1-lip PDH complexes with mutations in the E1 gene leading to C259S (pGS457) and C259N (pGS596) substitutions (Machado et al., 1992; Machado, 1993).
Purification of PDHc. Cultures for purification of 1-lip and 3-lip PDH complexes were grown at 37° C. in LB medium containing glucose (0.2%) and ampicillin (50 μg/mL). The PDH complexes were induced by adding IPTG to 60 μM as described by Russell et al. (1992). Cells were disrupted by ultrasonic treatment after preincubation with lysozyme (0.6 mg/mL final concentration) for 15 min. The PDHc was sedimented by ultracentrifugation (100,000×g for 3 h) and further purified by chromatography on a
Sephacryl S-400 HR column. Fractions containing PDHc were pooled and treated with ammonium sulfate to 70% saturation. The enzyme was dissolved in buffer A (20 mM potassium phosphate, pH 7.8, 2 mM Na2 EDTA, 1 mM PMSF, and 1 mM benzamidine.HCl) then dialyzed against the same buffer. The PDH complexes were stored in buffer A at -20° C.
as §1, §2, §3

A further experiment has as its target PDHc from E. coli (Escherichia coli, UniProt P0AFG8). The settings on record: cited from earlier work.
For experiment [3], the target named is T1, resolved E1. The conditions noted are these: read-out: Ki E1; calculated from data of Flournoy and Frey (1989); cited from earlier work.
Experiment [4] has as its target T3, Pyruvate decarboxylase from Saccharomyces cerevisiae (Saccharomyces cerevisiae, UniProt P06169).
T3 construct: made in house; host or cells: E. coli
T3 sequence (P06169 2-563 limits assumed): T2 sequence (P06169 2-563 limits assumed)
In words: Inactivation of pyruvate decarboxylase (PDC). The experiment is classed as biochemical. On the procedure:
Pyruvate decarboxylase from Saccharomyces cerevisiae was overexpressed in E. coli (Baburina et al., 1994), then purified according to Farrenkopf & Jordan (1992). It was assayed spectrophotometrically by coupling to alcohol dehydrogenase (Holzer et al., 1960).

In experiment [5] the target is T4, Pyruvate oxidase from Lactobacillus plantarum (Lactiplantibacillus plantarum, UniProt P37063).
T4 construct: purchased Boehringer Mannheim (a gift, not bought)
T4 sequence (P37063 1-603): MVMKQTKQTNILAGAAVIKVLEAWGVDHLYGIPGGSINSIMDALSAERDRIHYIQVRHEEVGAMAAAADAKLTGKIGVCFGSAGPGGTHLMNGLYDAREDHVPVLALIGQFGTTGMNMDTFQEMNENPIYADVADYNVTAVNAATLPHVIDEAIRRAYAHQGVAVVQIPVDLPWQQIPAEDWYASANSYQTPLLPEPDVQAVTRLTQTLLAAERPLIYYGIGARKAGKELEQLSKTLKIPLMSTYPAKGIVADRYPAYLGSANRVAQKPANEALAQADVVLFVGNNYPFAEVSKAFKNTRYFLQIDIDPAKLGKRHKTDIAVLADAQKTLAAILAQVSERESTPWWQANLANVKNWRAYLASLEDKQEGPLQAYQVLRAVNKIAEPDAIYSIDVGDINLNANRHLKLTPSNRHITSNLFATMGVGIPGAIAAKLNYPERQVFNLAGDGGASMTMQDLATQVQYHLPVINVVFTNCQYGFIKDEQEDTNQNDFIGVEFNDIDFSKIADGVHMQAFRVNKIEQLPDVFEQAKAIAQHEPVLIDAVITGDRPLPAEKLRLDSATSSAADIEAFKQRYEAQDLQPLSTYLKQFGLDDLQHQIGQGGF
Nature of the experiment: Inactivation of pyruvate oxidase (POX). It is filed as biochemical. The settings on record: for kinact/KI: read-out: kc/Ki,c (converted). On the procedure: Pyruvate oxidase from Lactobacillus plantarum was a gift from Boehringer Mannheim and was assayed according to the manufacturer's instructions at 25° C. by measuring the rate of 4-quinonimine production from H2 O2, 3,5-dichlorophenolsulfonic acid and 4-aminoantipyrine in the presence of horseradish peroxidase, at 546 nm, using a Cobas-Bio (Roche Diagnostics, Somerville, N.J.) automated centrifugal analyzer. The assay reaction mixture (total vol. 0.25 mL) contained: 40 mM sodium pyruvate; 50 mM potassium phosphate buffer, pH 6.5 with 10% (v/v) glycerol; 6.8 mM 3,5-dichlorophenolsulfonic acid; 0.03% of 4-aminoantipyrine; and 5u/mL of horseradish peroxidase. The reaction was initiated by adding POX.

Another experiment addresses T5, E1 (Escherichia coli, UniProt P0AFG8).
T5 construct: made in house; host or cells: resolved from PDHc expressed in E. coli JRG1342
Nature of the experiment: Fluorescence measurements on binding to E1. Set-up: species or system E. coli. The settings on record: 2 mM. On the procedure: Fluorescence measurements on the binding of 2-oxo-3-butynoic acid to E1. The fluorescence spectrum of apo-E1 (enzyme having no activity in the absence of ThDP) was measured using the SLM8100 spectrofluorimeter at 25° C. The excitation wavelength was 295 nm and the emission spectrum, presumably due to tryptophan, was recorded in the 300-450 nm range in a 1 mL or 3 mL quartz cuvette. The concentration of apo-E1 was 0.05-0.175 mg/mL in 20 mM KH2 PO4 buffer, pH 7.5. The excitation and emission monochromator slit widths were 4 nm. The V.3.0 software and KaleidaGraph computer program were used for data processing. The emission maximum for tryptophan (λ=335 nm) was determined by fitting the points from the peak using the KaleidaGraph computer program.

The target in experiment [6] is T6, POX from Lactobacillus plantarum (Lactiplantibacillus plantarum, UniProt P37063).
T6 sequence (P37063 1-603): T4 sequence (P37063 1-603)
The settings on record: cited from earlier work.

The target in experiment [7] is T1, resolved E1. The settings on record: read-out: Ki, reversible inhibition of resolved E1; dichorophenolindophenol assay, Lowe & Perham 1984; cited from earlier work.

The structures appear in SMILES notation. “Also recorded” adds a separate entry of the source. Where two headings read alike, the source gives them in different places.

Turning to `O=C(O)c1cc[c]([Hg][Cl])cc1` [p-chloromercuribenzoate, reference compound], the “molar excess required to inactivate E1” value on resolved E1 [1] came to 300 fold molar excess.
As for `O=C(O)C(=O)C#Cc1ccccc1` [2-oxo-4-phenyl-3-butynoic acid, reference compound], the “inhibition of brewer's yeast PDC (in words)” value in experiment [2] is reported as “inhibited”. For the same compound, on PDHc, the “inhibition / inactivation of PDHc (in words)” value was “no effect; also recorded: no inhibition”.
As to `O=C(O)C(=O)CF` [fluoropyruvate], the Ki was 33 µM at PDHc from E. coli (calculated from data of Flournoy and Frey (1989), read-out: Ki PDHc); 28 µM at resolved E1 [3].
Take `CC#CC(=O)C(=O)O` [2-oxo-3-pentynoic acid, 2-Oxo-3-pentynoic acid]: in [4], the “inhibition / inactivation of PDC (in words)” value was “inhibit”. For the same compound, the “inhibition / inactivation of POX (in words)” value in experiment [5] was “inhibit”. Besides, the saturation by inhibitor result in experiment [5] (POX) is reported as “no”. The kinact/KI was 0.207 M⁻¹ s⁻¹ in experiment [5] (POX, from linear portion at high inhibitor concentrations (d)); 0.0473 M⁻¹ s⁻¹ in experiment [5] (POX, from linear portion at low inhibitor concentrations (c)); 25.3 M⁻¹ s⁻¹ at PDHc (pH 7.5, read-out: ki/Ki PDHc). Also, the Ki on PDHc was determined as 276 µM. In addition, the “partial protection by pyruvate on slow phase of inactivation” value at PDHc (1-lip PDHc, 3 mM inhibitor, 5 mM pyruvate, 1 mM ThDP) stood at 21%. The “kapp, slower phase of inactivation” value on PDHc (3 mM inhibitor) amounted to 0.048 min⁻¹; at PDHc (4 mM inhibitor) it was 0.022 min⁻¹. Moreover, the activity at 3000 µM came to 14% on PDHc (read-out: residual activity after 26 min of inactivation, 1-lip PDHc, 3 mM inhibitor, absence of pyruvate) and 35% at PDHc (read-out: residual activity after 26 min of inactivation, 1-lip PDHc, 3 mM inhibitor, presence of 5 mM pyruvate).
On to `CC(=O)C(=O)O` [pyruvate, reference compound], for which the “decrease of fluorescence intensity of E1” value on E1 (absence of ThDP) is 21%; at E1 (with ThDP 0.2 mM and MgCl2 1 mM), “about 15%”.
With `O=C(O)C(=O)C=Cc1ccccc1` [2-oxo-4-phenyl-3-butenoic acid, reference compound], the “inhibition of brewer's yeast PDC (in words)” value in experiment [2] is listed as “inhibited”. In addition, the “inhibition / inactivation of PDHc (in words)” value against PDHc is “no effect”.
As to `CC(=O)[PH](=O)O` [acetylphosphinate], the Ki at PDHc from E. coli (PDHc from E. coli) is 0.15 µM; in experiment [6] (POX from Lactobacillus plantarum), 50 µM; in experiment [2] (PDC from Saccharomyces cerevisiae), 470 µM.
Take `O=C(O)C(=O)/C=C/c1ccc(Cl)cc1` [E-4(4-chlorophenyl)-2-oxo-3-butenoic acid, reference compound]: the Ki in [4] (PDC, read-out: Ki) amounted to 700 µM. Further, in experiment [4] (PDC, read-out: first order rate constant of inactivation (ki) (converted)), the kinact was 0.00633 s⁻¹. The kinact/KI in [4] (PDC, read-out: ki/Ki (converted)) was 9 M⁻¹ s⁻¹.
As to `O=C(O)C(=O)CBr` [bromopyruvate], at resolved E1 [7], the Ki was 90 ± 15 µM.
Take `CSS(C)(=O)=O` [methylmethanethiolsulfonate, reference compound]: the “effect on catalytic activity of resolved E1 (in words)” value at resolved E1 [1] is “not significantly affected”.
Turning to `O=C(O)c1cc(SSc2ccc([N+](=O)[O-])c(C(=O)O)c2)ccc1[N+](=O)[O-]` [5,5'-dithiobis-(2-nitrobenzoic acid), reference compound], the “effect on catalytic activity of resolved E1 (in words)” value at resolved E1 [1] is recorded as “not significantly affected”.
Turning to `CCC(=O)C(=O)O` [2-oxobutanoic acid], the Km on PDHc from E. coli (Bisswanger (1981), read-out: Km (substrate of E. coli PDHc)) is 3 mM. In experiment [6] (manufacturer's information), the “substrate-like activity with POX” value is listed as “fails to show substrate-like activity”.
